Experimental data from patent US20100144733A1, “Compounds, compositions and methods comprising heteroaromatic derivatives” (Institute for OneWorld Health, priority 2008, published 2010).
Like-named read-outs stand apart in the source and are kept apart here.

Target: T1, CFTR (Homo sapiens, UniProt P13569)
T1 construct: endogenous in cells; host or cells: T84 human colonic cells (ECACC)
Experiment: T84 assay (FLIPR membrane potential dye, forskolin/IBMX-stimulated CFTR channel activity)
Format: cell-based
Protocol: (§1) For example, Human colonic T84 cells can be acquired from the European Collection of Cell Cultures (ECACC) and grown in standard culture conditions as described by the supplier. On the day before assay 25,000 T84 cells per well are plated into standard black walled, clear bottom 384-well assay plates in standard growth medium consisting of DMEM:F12 with 10% FBS and incubated overnight. On the day of the assay the plates are washed using a standard assay buffer (HBSS with 10 mM Hepes) and incubated for 15 minutes in serum free cell culture medium before the addition of a commercially available membrane potential sensitive fluorescent dye (FLIPRRed membrane potential dye, Molecular Devices Corporation). T84 cells are incubated with the FLIPRRed membrane potential dye for 45 minutes in the presence and absence of test compound before being transferred to a commercially available fluorescence imaging plate reader (FLIPR384, Molecular Devices Corporation). Fluorescence levels are monitored continuously every second for 150 seconds; after an initial 10 second baseline, CFTR channel activity is stimulated through the addition of 10 μM forskolin in the presence of 100 μM of the phosphodiesterase inhibitor iso-butyl-methylxanthine (IBMX). Addition of the forskolin leads to the activation of intracellular adenylyl cylase 1, elevating cAMP levels and results in the phosphorylation and opening of CFTR anion channels. CFTR channel opening causes chloride ion efflux and subsequent depolarization of the cells, which is measured by an increase in fluorescence. CFTR inihibitor compounds prevent cell depolarization and the associatred increase in fluorescence.
as §1, with “Human colonic” for “For example, Human colonic”, “T84 cells are acquired from” for “T84 cells can be acquired from”, “(ECACC) and are grown in” for “(ECACC) and grown in”, “10 μM Forskolin in the” for “10 μM forskolin in the”, “fluorescence. CFTR inhibitor compounds prevent” for “fluorescence. CFTR inihibitor compounds prevent”, “and the associated increase in” for “and the associatred increase in”

[1] = isoxazole-containing compounds (Table 10, 10′, 11, 11′), read-out: IC50
[2] = thiadiazole-containing compounds (Table 12), read-out: IC50
[3] = oxadiazole-containing compounds (a series), average of at least 2 runs unless annotated n = 1, read-out: IC50
[4] = imidazole and triazole-containing compounds (Tables 13, 14, 14′), read-out: IC50 (μM) (T84 assay)

T1 sequence (P13569 whole entry): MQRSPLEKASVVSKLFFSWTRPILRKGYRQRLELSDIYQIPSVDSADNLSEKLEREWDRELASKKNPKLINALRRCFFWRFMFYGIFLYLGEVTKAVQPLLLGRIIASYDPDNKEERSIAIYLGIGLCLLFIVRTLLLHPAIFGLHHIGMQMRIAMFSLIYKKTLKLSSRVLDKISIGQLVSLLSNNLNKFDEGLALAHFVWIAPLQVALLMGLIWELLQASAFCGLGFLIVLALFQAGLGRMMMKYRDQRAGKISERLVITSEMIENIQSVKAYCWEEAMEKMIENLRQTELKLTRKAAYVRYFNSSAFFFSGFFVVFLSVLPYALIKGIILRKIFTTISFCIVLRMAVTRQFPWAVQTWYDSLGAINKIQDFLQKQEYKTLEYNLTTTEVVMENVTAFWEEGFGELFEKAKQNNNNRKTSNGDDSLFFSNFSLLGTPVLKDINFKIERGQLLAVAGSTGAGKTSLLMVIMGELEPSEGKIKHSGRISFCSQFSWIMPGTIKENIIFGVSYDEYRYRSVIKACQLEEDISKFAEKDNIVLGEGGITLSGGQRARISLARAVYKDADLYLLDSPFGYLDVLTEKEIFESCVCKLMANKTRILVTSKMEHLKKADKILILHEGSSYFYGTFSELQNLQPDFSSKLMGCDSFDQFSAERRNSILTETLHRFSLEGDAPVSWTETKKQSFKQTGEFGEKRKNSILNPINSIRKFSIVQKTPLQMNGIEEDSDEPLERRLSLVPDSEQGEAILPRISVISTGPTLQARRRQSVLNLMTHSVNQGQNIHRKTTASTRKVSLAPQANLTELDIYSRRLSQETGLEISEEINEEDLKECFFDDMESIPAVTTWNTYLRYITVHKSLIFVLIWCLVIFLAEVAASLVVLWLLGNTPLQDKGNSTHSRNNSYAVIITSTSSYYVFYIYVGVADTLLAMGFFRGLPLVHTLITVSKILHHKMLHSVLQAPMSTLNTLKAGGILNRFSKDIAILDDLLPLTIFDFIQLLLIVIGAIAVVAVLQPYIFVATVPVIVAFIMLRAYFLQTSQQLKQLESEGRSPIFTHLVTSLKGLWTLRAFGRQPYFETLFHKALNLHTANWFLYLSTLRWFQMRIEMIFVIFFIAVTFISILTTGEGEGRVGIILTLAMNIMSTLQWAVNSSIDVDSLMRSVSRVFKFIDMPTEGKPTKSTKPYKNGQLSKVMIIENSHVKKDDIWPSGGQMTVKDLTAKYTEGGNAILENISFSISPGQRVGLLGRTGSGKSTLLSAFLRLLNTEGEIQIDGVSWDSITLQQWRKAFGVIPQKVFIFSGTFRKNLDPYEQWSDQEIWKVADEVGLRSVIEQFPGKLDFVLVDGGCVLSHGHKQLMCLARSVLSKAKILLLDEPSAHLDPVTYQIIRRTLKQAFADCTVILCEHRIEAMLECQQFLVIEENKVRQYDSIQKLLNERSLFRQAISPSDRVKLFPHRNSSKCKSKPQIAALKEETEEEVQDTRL

With `CN(Cc1ccccc1)C(=O)c1cc(-c2cc(Br)c(O)c(Br)c2)on1` [1g, N-Benzyl-5-(3,5-dibromo-4-hydroxyphenyl)-N-methylisoxazole-3-carboxamide] the IC50 [1] was 7.65 µM.
Compound `Oc1c(Cl)cc(-c2nnc(Cc3cccc(Cl)c3)s2)cc1Cl` [1h, 2,6-dichloro-4-(5-(3-chlorobenzyl)-1,3,4-thiadiazol-2-yl)phenol] has an IC50 [2] of 5.65 µM.
`O=C(c1nc(-c2cc(Br)c(O)c(Br)c2)no1)N(Cc1cccnc1)Cc1cccc(C(F)(F)F)c1` [2a, 3-(3,5-dibromo-4-hydroxyphenyl)-N-(pyridin-3-ylmethyl)-N-(3-(trifluoromethyl)benzyl)-1,2,4-oxadiazole-5-carboxamide] was tested, and the IC50 [3] was 1.03 µM.
With `Oc1c(Cl)cc(-c2nnc(COc3ccc(F)cc3Cl)s2)cc1Cl` [2h, 2,6-dichloro-4(5-((2-chloro-4-fluorophenoxy)methyl)-1,3,4-thiadiazol-2-yl)phenol] the IC50 [2] was 5.65 µM.
`CN(C(=O)c1nc(-c2cc(Br)c(O)c(Br)c2)no1)c1ccc(OC(F)(F)F)cc1` [3a, 3-(3,5-dibromo-4-hydroxyphenyl)-N-methyl-N-(4(trifluoromethoxy)phenyl)-1,2,4-oxadiazole-5-carboxamide] gave an IC50 [3] of 2.62 µM.
`CN(Cc1cccc(C(F)(F)F)c1)C(=O)c1cc(-c2cc(Br)c(O)c(Br)c2)on1` [3g, 5-(3,5-dibromo-4-hydroxyphenyl)-N-methyl-N-(3-(trifluoromethyl)benzyl)isoxazole-3-carboxamide] gave an IC50 [1] of 16.6 µM.
Compound `Oc1c(Cl)cc(-c2nnc(CN3c4ccccc4Sc4ccccc43)s2)cc1Cl` [3h, 4-(5-((10H-Phenothiazin-10-yl)methyl)-1,3,4-thiadiazol-2-yl)-2,6-dichlorophenol] has an IC50 [2] of 6.57 µM.
Work on `O=C(c1nc(-c2cc(Br)c(O)c(Br)c2)no1)N1CCN(c2ccc(Cl)c(C(F)(F)F)c2)CC1` [4a, (4-(4-chloro-3-(trifluoromethyl)phenyl)piperazin-1-yl)(3-(3,5-dibromo-4-hydroxyphenyl)-1,2,4-oxadiazol-5-yl)methanone] yielded an IC50 [3] of 4.72 µM.
Work on `CN(Cc1ccc2c(c1)OCO2)C(=O)c1cc(-c2cc(Br)c(O)c(Br)c2)on1` [4g, N-(benzo[d][1,3]dioxol-5-ylmethyl)-5-(3,5-dibromo-4-hydroxyphenyl)-N-methylisoxazole-3-carboxamide] yielded an IC50 [1] of 19 µM.
`Cc1cc(Cl)ccc1OCc1nnc(-c2cc(Cl)c(O)c(Cl)c2)s1` [4h, 2,6-dichloro-4(5-((4-chloro-2-methylphenoxy)methyl)-1,3,4-thiadiazol-2-yl)phenol] gave an IC50 [2] of 12.7 µM.
For `O=C(NC(c1ccccc1)c1ccccc1)c1nc(-c2cc(Br)c(O)c(Br)c2)no1` [5a, N-benzhydryl-3-(3,5-dibromo-4-hydroxyphenyl)-1,2,4-oxadiazole-5-carboxamide], the IC50 [3] was 5.23 µM.
In the case of `CN(Cc1ccc(Cl)cc1)C(=O)c1cc(-c2cc(Br)c(O)c(Br)c2)on1` [5g, N-(4-chlorobenzyl)-5-(3,5-dibromo-4-hydroxyphenyl)-N-methylisoxazole-3-carboxamide], the IC50 [1] is reported as 5.31 µM.
With `Oc1c(Cl)cc(-c2nnc(-c3snnc3-c3ccccc3)s2)cc1Cl` [5h, 2,6-dichloro-4(5-(4-phenyl-1,2,3-thiadiazol-5-yl)-1,3,4-thiadiazol-2-yl)phenol] the IC50 [2] was 13.4 µM.
For `O=C(c1ncn(-c2cc(Cl)c(O)c(Cl)c2)n1)N1CCC(Cc2ccccc2)CC1` [5i, (4-benzylpiperidin-1-yl)(1-(3,5-dichloro-4-hydroxyphenyl)-1H-1,2,4-triazol-3-yl)methanone], the IC50 [4] was 15.9 µM.
`O=C(c1nc(-c2cc(Br)c(O)c(Br)c2)no1)N1CCN(c2cccc(C(F)(F)F)c2)CC1` [6a, (3-(3,5-dibromo-4-hydroxyphenyl)-1,2,4-oxadiazol-5-yl)(4-(3-(trifluoromethyl)phenyl)piperazin-1-yl)methanone] showed an IC50 [3] of 6.19 µM.
For `CN(Cc1cccc(C(F)(F)F)c1)C(=O)c1cc(-c2cc(Cl)c(O)c(Cl)c2)on1` [6g, 5-(3,5-dichloro-4-hydroxyphenyl)-N-methyl-N-(3-(trifluoromethyl)benzyl)isoxazole-3-carboxamide], the IC50 [1] was 7.02 µM.
`Oc1c(Cl)cc(-c2nnc(Cc3ccsc3)s2)cc1Cl` [6h, 2,6-dichloro-4-(5-(thiophen-3-ylmethyl)-1,3,4-thiadiazol-2-yl)phenol] gave an IC50 [2] of 17.6 µM.
Work on `CN(Cc1cccc(C(F)(F)F)c1)C(=O)c1ncn(-c2cc(Cl)c(O)c(Cl)c2)n1` [6i, 1-(3,5-dichloro-4-hydroxyphenyl)-N-methyl-N-(3-(trifluoromethyl)benzyl)-1H-1,2,4-triazole-3-carboxamide] yielded an IC50 [4] of 16.2 µM.
`O=C(NCc1ccc(Oc2ccccc2)cc1)c1nc(-c2cc(Cl)c(O)c(Cl)c2)no1` [7a, 3-(3,5-dichloro-4-hydroxyphenyl)-N-(4-phenoxybenzyl)-1,2,4-oxadiazole-5-carboxamide] showed an IC50 [3] of 5.22 µM.
`CN(Cc1ccc(C(F)(F)F)cc1)C(=O)c1cc(-c2cc(Cl)c(O)c(Cl)c2)on1` [7g, 5-(3,5-dichloro-4-hydroxyphenyl)-N-methyl-N-(4(trifluoromethyl)benzyl)isoxazole-3-carboxamide] was tested, and the IC50 [1] was 10.6 µM.
In the case of `Oc1c(Cl)cc(-c2nnc(COc3cccc(C(F)(F)F)c3)s2)cc1Cl` [7h, 2,6-dichloro-4(5-((3-(trifluoromethyl)phenoxy)methyl)-1,3,4-thiadiazol-2-yl)phenol], the IC50 [2] is reported as 23.4 µM.
With `CN(Cc1ccc(OC(F)(F)F)cc1)C(=O)c1ncn(-c2cc(Cl)c(O)c(Cl)c2)n1` [7i, 1-(3,5-dichloro-4-hydroxyphenyl)-N-methyl-N-(4(trifluoromethoxy)benzyl)-1H-1,2,4-triazole-3-carboxamide] the IC50 [4] was 15.7 µM.
Compound `O=C(c1nc(-c2cc(Cl)c(O)c(Cl)c2)no1)N1CCN(c2cccc(C(F)(F)F)c2)CC1` [8a, (3-(3,5-dichloro-4-hydroxyphenyl)-1,2,4-oxadiazol-5-yl)(4-(3-(trifluoromethyl)phenyl) 4-(3-(trifluoromethyl)phenyl)piperazin-1-yl)methanone] has an IC50 [3] of 6.88 µM.
Work on `CN(Cc1ccc2c(c1)OCO2)C(=O)c1cc(-c2cc(Cl)c(O)c(Cl)c2)on1` [8g, N-(benzo[d][1,3]dioxol-5-ylmethyl)-5-(3,5-dichloro-4-hydroxyphenyl)-N-methylisoxazole-3-carboxamide] yielded an IC50 [1] of 14.6 µM.
With `CN(CCO)C(=O)COc1c(Cl)cc(-c2nnc(CN3c4ccccc4Sc4ccccc43)s2)cc1Cl` [8h, 2-(4-(5-((10H-phenothiazin-10-yl)methyl)-1,3,4-thiadiazol-2-yl)-2,6-dichlorophenoxy)-N-(2-hydroxyethyl)-N-methylacetamide] the IC50 [2] was 8.64 µM.
`O=C(NCc1cccc(C(F)(F)F)c1)c1ncn(-c2cc(Cl)c(O)c(Cl)c2)n1` [8i, 1-(3,5-dichloro-4-hydroxyphenyl)-N-(3-(trifluoromethyl)benzyl)-1H-1,2,4-triazole-3-carboxamide] showed an IC50 [4] of 22.4 µM.
With `O=C(NCC(c1ccccc1)c1ccccc1)c1nc(-c2cc(Br)c(O)c(Br)c2)no1` [9a, 3-(3,5-dibromo-4-hydroxyphenyl)-N-(2,2-diphenylethyl)-1,2,4-oxadiazole-5-carboxamide] the IC50 [3] was 7.17 µM.
With `O=C(c1cc(-c2cc(Br)c(O)c(Br)c2)on1)N1CCC(Cc2ccccc2)CC1` [9g, (4-Benzylpiperidin-1-yl)(5-(3,5-dibromo-4-hydroxyphenyl)isoxazol-3-yl)methanone] the IC50 [1] was 8.96 µM.
`O=C(COc1c(Cl)cc(-c2nnc(CN3c4ccccc4Sc4ccccc43)s2)cc1Cl)N(CCO)CCO` [9h, 2-(4-(5-((10H-phenothiazin-10-yl)methyl)-1,3,4-thiadiazol-2-yl)-2,6-dichlorophenoxy)-N,N-bis(2-hydroxyethyl)acetamide] showed an IC50 [2] of 9.69 µM.
Compound `CC(NC(=O)c1ncn(-c2cc(Cl)c(O)c(Cl)c2)n1)c1ccc(F)cc1` (stereo not shown) [9i, 1-(3,5-dichloro-4-hydroxyphenyl)-N-(1-(4-fluorophenyl)ethyl)-1H-1,2,4-triazole-3-carboxamide] has an IC50 [4] of 17.6 µM.
For `O=C(NCc1ccc2sccc2c1)c1nc(-c2cc(Br)c(O)c(Br)c2)no1` [10a, N-(benzo[b]thiophen-5-ylmethyl)-3-(3,5-dibromo-4-hydroxyphenyl)-1,2,4-oxadiazole-5-carboxamide], the IC50 [3] was 7.26 µM.
